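Method: 48-hour compound exposure of cells in 96-well plates, five concentrations, linear interpolation of endpoints. The concentration for 50% growth inhibition is given as GI50. TGI: concentration producing complete growth inhibition.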
Experiments:
Assay in all cases: NCI anticancer screen, dose series, 48 h
[1] = test system: 786-0 renal
[2] = test system: A498 renal
[3] = test system: A549 NSCLC
[4] = test system: ACHN renal
[5] = test system: BT-549 breast
[6] = test system: CAKI-1 renal
[7] = test system: CCRF-CEM leukemia
[8] = test system: COLO 205 colon
[9] = test system: DU-145 prostate
[10] = test system: EKVX NSCLC
[11] = test system: HCC-2998 colon
[12] = test system: HCT-116 colon
[13] = test system: HCT-15 colon
[14] = test system: HL-60(TB) leukemia
[15] = test system: HOP-62 NSCLC
[16] = test system: HOP-92 NSCLC
[17] = test system: HS 578T breast
[18] = test system: HT29 colon
[19] = test system: IGROV1 ovarian
[20] = test system: K-562 leukemia
[21] = test system: KM12 colon
[22] = test system: LOX IMVI melanoma
[23] = test system: M14 melanoma
[24] = test system: MALME-3M melanoma
[25] = test system: MCF7 breast
[26] = test system: MDA-MB-231 breast
[27] = test system: MDA-MB-435
[28] = test system: MOLT-4 leukemia
[29] = test system: NCI-H226 lung
[30] = test system: NCI-H23 lung
[31] = test system: NCI-H460 lung
[32] = test system: NCI-H522 lung
[33] = test system: NCI/ADR-RES ovarian
[34] = test system: OVCAR-3 ovarian
[35] = test system: OVCAR-4 ovarian
[36] = test system: OVCAR-5 ovarian
[37] = test system: OVCAR-8 ovarian
[38] = test system: PC-3 prostate
[39] = test system: RPMI-8226 leukemia
[40] = test system: RXF 393 renal
[41] = test system: SF-268 CNS
[42] = test system: SF-295 CNS
[43] = test system: SF-539 CNS
[44] = test system: SK-MEL-2 melanoma
[45] = test system: SK-MEL-28 melanoma
[46] = test system: SK-MEL-5 melanoma
[47] = test system: SK-OV-3 ovarian
[48] = test system: SN12C renal
[49] = test system: SNB-19 CNS
[50] = test system: SNB-75 CNS
[51] = test system: SR leukemia
[52] = test system: SW-620 colon
[53] = test system: T-47D breast
[54] = test system: TK-10 renal
[55] = test system: U251 CNS
[56] = test system: UACC-257 melanoma
[57] = test system: UACC-62 melanoma
[58] = test system: UO-31 renal

Structure (SMILES): CC(C)(C)OC(=O)Nc1ccc2c(c1)C(NC(=O)Nc1cccc(C#N)c1)CC(C)(C)O2 (stereo unspecified)
- GI50 [1]: 5.05 µM
- TGI [1]: > 100 µM
- GI50 [2]: 7.14 µM
- TGI [2]: > 100 µM
- GI50 [3]: 2.9 µM
- TGI [3]: > 100 µM
- GI50 [4]: 3.99 µM
- TGI [4]: > 100 µM
- GI50 [5]: 2.65 µM
- TGI [5]: 18 µM
- GI50 [6]: 2.49 µM
- TGI [6]: > 42.6 µM
- GI50 [7]: 3.8 µM
- TGI [7]: > 100 µM
- GI50 [8]: 3.46 µM
- TGI [8]: 15.3 µM
- GI50 [9]: 6.5 µM
- TGI [9]: > 100 µM
- GI50 [10]: 0.691 µM
- TGI [10]: > 69.6 µM
- GI50 [11]: 4.93 µM
- TGI [11]: > 100 µM
- GI50 [12]: 1.24 µM
- TGI [12]: > 44.6 µM
- GI50 [13]: 1.89 µM
- TGI [13]: > 51.3 µM
- GI50 [14]: 2.39 µM
- TGI [14]: 22.3 µM
- GI50 [15]: 5 µM
- TGI [15]: > 100 µM
- GI50 [16]: 4.06 µM
- TGI [16]: > 28.3 µM
- GI50 [17]: 8.79 µM
- TGI [17]: > 100 µM
- GI50 [18]: 6.71 µM
- TGI [18]: > 100 µM
- GI50 [19]: 4.44 µM
- TGI [19]: > 100 µM
- GI50 [20]: 2.12 µM
- TGI [20]: > 100 µM
- GI50 [21]: 3.39 µM
- TGI [21]: > 100 µM
- GI50 [22]: 1.53 µM
- TGI [22]: > 60.5 µM
- GI50 [23]: 3.73 µM
- TGI [23]: 40.5 µM
- GI50 [24]: 3.69 µM
- TGI [24]: > 68 µM
- GI50 [25]: 1.92 µM
- TGI [25]: 30.7 µM
- GI50 [26]: 4.17 µM
- TGI [26]: > 50.7 µM
- GI50 [27]: 1.44 µM
- TGI [27]: 15.2 µM
- GI50 [28]: 1.96 µM
- TGI [28]: > 64.6 µM
- GI50 [29]: 2.29 µM
- TGI [29]: 42.8 µM
- GI50 [30]: 1.09 µM
- TGI [30]: > 81.3 µM
- GI50 [31]: 3 µM
- TGI [31]: > 100 µM
- GI50 [32]: 3.61 µM
- TGI [32]: 54.7 µM
- GI50 [33]: 2.78 µM
- TGI [33]: > 64.6 µM
- GI50 [34]: 2.15 µM
- TGI [34]: > 100 µM
- GI50 [35]: 1.18 µM
- TGI [35]: > 100 µM
- GI50 [36]: 28 µM
- TGI [36]: > 100 µM
- GI50 [37]: 3.13 µM
- TGI [37]: 55.7 µM
- GI50 [38]: 0.785 µM
- TGI [38]: > 35.3 µM
- GI50 [39]: 2.63 µM
- TGI [39]: > 81.9 µM
- GI50 [40]: 5.89 µM
- TGI [40]: 70.2 µM
- GI50 [41]: 5.1 µM
- TGI [41]: > 100 µM
- GI50 [42]: 1.94 µM
- TGI [42]: > 37.1 µM
- GI50 [43]: 5.19 µM
- TGI [43]: 44.1 µM
- GI50 [44]: 6.4 µM
- TGI [44]: 31.4 µM
- GI50 [45]: 5.34 µM
- TGI [45]: 71.4 µM
- GI50 [46]: 0.463 µM
- TGI [46]: 3.15 µM
- GI50 [47]: 8.68 µM
- TGI [47]: > 100 µM
- GI50 [48]: 4.57 µM
- TGI [48]: > 100 µM
- GI50 [49]: 3.54 µM
- TGI [49]: > 100 µM
- GI50 [50]: 7.01 µM
- TGI [50]: > 100 µM
- GI50 [51]: 2.18 µM
- TGI [51]: 30 µM
- GI50 [52]: 3.61 µM
- TGI [52]: > 100 µM
- GI50 [53]: 2.52 µM
- TGI [53]: 33 µM
- GI50 [54]: 6.14 µM
- TGI [54]: > 100 µM
- GI50 [55]: 1.76 µM
- TGI [55]: > 58.2 µM
- GI50 [56]: 1.07 µM
- TGI [56]: 6.93 µM
- GI50 [57]: 0.834 µM
- TGI [57]: 17 µM
- GI50 [58]: 3.36 µM
- TGI [58]: > 100 µM

Source: PubChem BioAssay (NCI)
